Experimental data: patent publication US9822106B2, “Inhibitors of leukotriene A4 hydrolase” (Celtaxsys, Inc., priority 2013, dated 2017)
Read-outs that look alike come from different tables or passages of the source.

Tests used:
LTA4-h [1] = biological target: T1, LTA4-h (Homo sapiens, UniProt P09960); test: hydrolase assay (hydrolase-homogeneous time resolved fluorescence); format: biochemical
T1 sequence (P09960 1-611): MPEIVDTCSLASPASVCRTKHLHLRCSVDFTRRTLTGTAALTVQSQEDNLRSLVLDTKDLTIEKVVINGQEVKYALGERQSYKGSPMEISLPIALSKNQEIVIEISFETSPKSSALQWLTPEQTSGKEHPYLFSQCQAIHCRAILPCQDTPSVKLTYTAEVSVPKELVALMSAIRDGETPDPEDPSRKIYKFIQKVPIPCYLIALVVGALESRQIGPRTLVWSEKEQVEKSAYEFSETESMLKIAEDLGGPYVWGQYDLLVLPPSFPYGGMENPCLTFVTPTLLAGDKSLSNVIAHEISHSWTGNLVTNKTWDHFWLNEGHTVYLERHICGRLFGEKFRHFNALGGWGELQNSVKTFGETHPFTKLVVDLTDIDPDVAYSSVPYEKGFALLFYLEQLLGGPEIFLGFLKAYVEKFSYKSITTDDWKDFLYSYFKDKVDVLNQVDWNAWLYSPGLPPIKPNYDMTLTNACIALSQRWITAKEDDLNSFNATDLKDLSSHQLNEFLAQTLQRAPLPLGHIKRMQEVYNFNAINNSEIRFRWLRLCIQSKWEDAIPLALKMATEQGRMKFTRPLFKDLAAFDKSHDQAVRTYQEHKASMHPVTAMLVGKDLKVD
Source text: The compounds of the invention can be tested for their ability to inhibit LTA4-h by various known assays and by assays described herein. For example, the compounds can be tested for their ability to inhibit LTA4-h activity by assaying the compounds in the hydrolase-homogeneous time resolved fluoroescence assay. This assay, which is a two-step assay, measures the hydrolysis of […] to LTB4 by analyzing the amount of LTB4 produced. The first step involves the enzymatic conversion of […] to LTB4 and the second step involves the quantification of the […] with a homogeneous time resolved fluoroescence assay.
(§1) Tables 4 to 6 below show the IC50 values for peptidase, hydrolase and whole blood assay (WBA) activity for exemplary compounds encompassed by the invention. The whole blood and aminopeptidase assays were performed as described in Penning et al., J. Med. Chem. 2000, 43, 721-735, and Rudberg et al., J. Biol. Chem. Vol. 279, No. 26, Issue of June 25, pp. 27376-27382, 2004, the contents of each of which are expressly incorporated by reference herein. The hydrolase assay was performed as described in U.S. Pat. No. 7,737,145, the contents of which are expressly incorporated herein.

LTA4-h [2] = biological target: T1, LTA4-h; test: peptidase (aminopeptidase) assay; format: biochemical
Source text: Since LTA4-h hydrolase is grouped with the M1 family of zinc metalloproteases (see, Rudberg, P. C. et al., J. Biol. Chem. 2002, Vol. 277, page 1398-1404), the compounds of the invention can be tested in the standard hydrolase and peptidase assay to determine the compounds' kinetic constants for binding to LTA4-h hydrolase and for inhibiting LTB4 synthesis (see Askonas, L. J., et al., The Journal of Pharmacology and Experimental Therapeutics 2002, 300(2): 577-582; Penning, T. D., J. Med. Chem. 2000, 43(4): 721-735; Kull, F. et al., The Journal of Biological Chemistry 1999, 274 (49): 34683-34690, the contents of which are expressly incorporated by reference herein).
as §1, with “The” for “Tables 4 to 6 below show the IC50 values for peptidase, hydrolase and whole blood assay (WBA) activity for exemplary compounds encompassed by the invention. The”

LTA4-h hydrolase = biological target: T2, LTA4-h hydrolase (Homo sapiens, UniProt P09960); test: whole blood assay (WBA); format: cell-based
T2 construct: from tissue; host or cells: whole blood
T2 sequence (P09960 1-611): T1 sequence (P09960 1-611)
Source text: Compounds of the invention can also be tested for their ability as inhibitors of LTA4-h hydrolase in the whole blood assay using human, mouse, rat or dog whole blood (see Penning, T. D. et al., J. Med. Chem. (2000), 43(4): 721-735 for a description of a human whole blood assay and a mouse whole blood assay, the contents of which are expressly incorporated herein).
as §1

colitis = conditions: eight weeks of treatment; cotton top tamarins; cited from earlier work
[3] = tested on: ionophore-induced LTB4 production; conditions: oral administration; mouse blood ex vivo; cited from earlier work
[4] = tested on: ionophore-induced LTB4 production; conditions: oral administration; rat peritoneum in vivo; cited from earlier work
[5] = prefix 'r' not defined, read-out: IC50 WBA, second value given with prefix 'r'

Row | Compound | IC50 (LTA4-h [1]) [µM] | IC50 (LTA4-h [2]) [µM] | IC50 (LTA4-h hydrolase; read-out: IC50 WBA) [µM] | further results
1 | COc1cc(C(=O)O)ccc1Oc1ncccc1CNCc1ccc(Oc2ccc(-c3ncco3)cc2)cc1 [Compound 14] | 0.35 | 0.061 | 1.5 | 
2 | O=C(O)C1CCCN(c2ccc(CNCc3ccc(Oc4nc5ccccc5s4)cc3)cn2)C1 (stereo not shown) [Compound 30] | 0.001 | 0.005 | 0.12 | 
3 | O=C(O)C1CCCN(c2ccc(CNCc3ccc(Oc4cnc5ccccc5n4)cc3)cn2)C1 (stereo not shown) [Compound 36] | 0.019 | 0.007 |  | 
4 | CN(CCCOc1ccc(Cc2ccccc2)cc1)CCC(=O)O.Cl [SC57461] |  |  |  | colitis symptoms (colitis): significantly improved colitis symptoms; inhibition of ionophore-induced LTB4 production [3]: caused inhibition; inhibition of ionophore-induced LTB4 production [4]: caused inhibition
5 | O=C(O)C1CCCN(c2ccc(CNCc3ccc(Oc4ccc5c(c4)OCO5)cc3)cn2)C1 (stereo not shown) [Compound 33] | 0.008 | 0.008 |  | 
6 | CN(Cc1ccc(Oc2ccc(Cl)cc2)cc1)Cc1ccc(N2CCCC(C(=O)O)C2)nc1 (stereo not shown) [Compound 27] | 0.32 | 0.048 | 0.51 | 
7 | CN(Cc1ccc(Oc2ccc(Cl)cc2)cc1)Cc1ccc(N2CCC(C(=O)O)CC2)nc1 [Compound 5] | 0.043 | 0.045 | 0.57 | 
8 | O=C(O)C1CCCN(c2ccc(CNCc3ccc(Oc4nc5ccccc5s4)cc3)cn2)C1 (stereo not shown) [Compound 29] |  | 0.004 | 0.16 | 
9 | O=C(O)c1ccc(CNc2ccc(Oc3ccc(Cl)cc3)cc2)cc1 [Compound 42] |  | 0.85 | > 3 | inhibition at 3 µM (LTA4-h [1]): 0%
10 | CN(CC(=O)O)c1ccc(CNCc2ccc(Oc3ccc(Cl)cc3)cc2)cn1 [Compound 20] |  | 0.01 |  | 
11 | O=C(O)C1CCCN(c2ccc(CNCc3ccc(Oc4ccc(Cl)cc4)cc3)cc2F)C1 (stereo not shown) [Compound 19] |  | 0.045 |  | 
12 | O=C(O)C1CCCN(c2ccc(CNCc3ccc(OC/C=C/c4ccccc4)cc3)cn2)C1 (stereo not shown) [Compound 31] | 0.009 | 0.042 | 0.23 | 
13 | O=C(O)C1CCCN(c2ccc(CNCc3ccc(Oc4ccc(-c5ncco5)cc4)cc3)cn2)C1 (stereo not shown) [Compound 25] | 0.003 | 0.013 | 0.055 | 
14 | O=C(O)C1CCCN(c2ccc(CNCc3ccc(Oc4ccc(Cl)cc4)cc3)cn2)C1 (stereo not shown) [Compound 22] | 0.0048 | 0.0039 | 0.032 | 
15 | O=C(O)C1CCCN(c2ccc(CNCc3ccc(Oc4ncccn4)cc3)cn2)C1 (stereo not shown) [Compound 34] | 0.086 | 0.013 |  | 
16 | O=C(O)C1CCCN(c2ccc(CNCc3ccc(OCc4ccc(Cl)cc4)cc3)cn2)C1 (stereo not shown) [Compound 35] | 0.11 | 0.045 |  | 
17 | O=C(O)c1ccc(Oc2ncccc2CNCc2ccc(Oc3ccc(-c4ncco4)cc3)cc2)cc1 [Compound 10] | 0.023 | 0.039 | 1.9 | 
18 | CN(Cc1ccc(Oc2ccc(Cl)cc2)cc1)Cc1cccnc1Oc1ccc(C(=O)O)cc1 [Compound 8] | 0.05 | 0.078 | 0.29 | 
19 | CCOC(=O)c1ccc(Oc2ncccc2CN(C)Cc2ccc(Oc3ccc(-c4ncco4)cc3)cc2)cc1 [Compound 11] |  |  |  | inhibition at 1 µM (LTA4-h [2]): 17%
20 | CN(Cc1ccc(Oc2ccc(Cl)cc2)cc1)Cc1ccc(N2CCCC(C(=O)O)C2)nc1 (stereo not shown) [Compound 24] | 0.15 | 0.028 |  | 
21 | CCOC(=O)c1ccc(Oc2ncccc2CN(C)Cc2ccc(Oc3ccc(Cl)cc3)cc2)cc1 [Compound 7] |  |  |  | inhibition at 1 µM (LTA4-h [2]): 11%

Row | Compound | IC50 (LTA4-h [1]) [µM] | IC50 (LTA4-h [2]) [µM] | IC50 (LTA4-h hydrolase; read-out: IC50 WBA) [µM] | further results
22 | O=C(O)C1CCCN(c2ccc(CNCc3ccc(Oc4ccc5cc(Cl)ccc5n4)cc3)cn2)C1 (stereo not shown) [Compound 39] |  | 0.17 |  | 
23 | O=C(O)C1CCCN(c2ccc(CNCc3ccc(Oc4ccc(CCO)cc4)cc3)cn2)C1 (stereo not shown) [Compound 40] |  | 0.021 |  | 
24 | Cc1c(C(=O)O)ncn1-c1ccc(CNCc2ccc(Oc3ccc(Cl)cc3)cc2)cn1 [Compound 16] | 0.003 | 0.081 | 0.88 | 
25 | CN(Cc1ccc(C(=O)O)cc1)c1ccc(CNCc2ccc(Oc3ccc(Cl)cc3)cc2)cn1 [Compound 1] | 0.28 | 0.49 | 0.21 | 
26 | CC(C)=CCOc1ccc(CNCc2ccc(N3CCCC(C(=O)O)C3)nc2)cc1 (stereo not shown) [Compound 32] | 0.037 | 0.01 |  | 
27 | O=C(O)[C@H]1CCCN(c2ccc(CNCc3ccc(Oc4cnc5ccccc5n4)cc3)cn2)C1 [Compound 37] |  | 0.012 |  | 
28 | O=C(O)c1ccc(Oc2ncccc2CNCc2ccc(Oc3ccc(Cl)cc3)cc2)cc1 [Compound 3] | 0.1 | 0.021 | 0.8 | IC50 (LTA4-h hydrolase; [5]): 0.42 µM
29 | C=CCOc1ccc(CNCc2ccc(N3CCCC(C(=O)O)C3)nc2)cc1 (stereo not shown) [Compound 28] | 0.26 | 0.073 | 1 | 
30 | CCOC(=O)c1ccc(Oc2ncccc2CNCc2ccc(Oc3ccc(-c4ncco4)cc3)cc2)cc1 [Compound 9] |  |  |  | inhibition at 1 µM (LTA4-h [2]): 45%
31 | CCOC(=O)c1ccc(Oc2ncccc2CNCc2ccc(Oc3ccc(Cl)cc3)cc2)cc1 [Compound 6] |  |  |  | inhibition at 1 µM (LTA4-h [2]): 18%
32 | O=C(O)C1CCN(c2ccc(CNCc3ccc(Oc4ccc(Cl)cc4)cc3)cn2)CC1 [Compound 2] | 0.069 | 0.068 | 0.73 | IC50 (LTA4-h hydrolase; [5]): 0.36 µM
33 | O=C(O)CCNc1ccc(CNCc2ccc(Oc3ccc(Cl)cc3)cc2)cn1 [Compound 21] |  | 0.002 |  | 
34 | CN(Cc1ccc(Oc2ccc(-c3ncco3)cc2)cc1)Cc1cccnc1Oc1ccc(C(=O)O)cc1 [Compound 12] | 0.033 | 0.012 | 0.36 | 
35 | CN(Cc1ccc(Oc2ccc(Cl)cc2)cc1)Cc1ccc(Oc2ccc(C(=O)O)cc2)nc1 [Compound 4] |  | 0.3 | 2.1 | inhibition at 1 µM (LTA4-h [1]; at 1 uM): 47%
36 | O=C(O)C1CCCN(c2ccc(CNCCc3ccc(Oc4ncccn4)cc3)cc2)C1 (stereo not shown) [Compound 18] | 0.068 | 0.016 |  | 
37 | COCCN(Cc1ccc(Oc2ccc(Cl)cc2)cc1)Cc1ccccc1Oc1cccc(C(=O)O)c1 [Compound 15] |  | 0.47 | 1.95 | inhibition at 3 µM (LTA4-h [1]): 18%
38 | O=C(O)C1CCCN(c2ccc(CNCCc3ccc(Oc4nc5ccccc5s4)cc3)cc2)C1 (stereo not shown) [Compound 17] | 0.005 | 0.054 |  | 
39 | CN(Cc1ccc(Oc2ccc(-c3ncco3)cc2)cc1)Cc1ccc(N2CCCC(C(=O)O)C2)nc1 (stereo not shown) [Compound 26] | 0.085 | 0.033 | 0.18 | 
40 | O=C(O)[C@@H]1CCCN(c2ccc(CNCc3ccc(Oc4cnc5ccccc5n4)cc3)cn2)C1 [Compound 38] |  | 0.016 |  | 
41 | O=C(O)c1cccc(Oc2ncccc2CNCc2ccc(Oc3ccc(-c4ncco4)cc3)cc2)c1 [Compound 13] | 1.4 | 0.075 | 2.3 | 
42 | COCCN(Cc1ccc(Oc2ccc(Cl)cc2)cc1)Cc1ccc(N2CCCC(C(=O)O)C2)nc1 (stereo not shown) [Compound 23] | 0.7 | 0.085 | 0.47 | 
